# Patent US8975232B2, “Macrocyclic kinase inhibitors and uses thereof” (President and Fellows of Harvard College, priority 2010, dated 2015)
# What was measured:
# Assay in all cases: SelectScreen kinase profiling
# Format in all cases: biochemical
# BTK = BTK (Homo sapiens, UniProt Q06187); conditions: 5 μM
# Protocol: (§1) Src IC50 determinations and single-point inhibition measurements were performed using Invitrogen's Z′-LYTE Tyr 02 assay kit according to the manufacturer's protocols. All kinase assays were performed at ATP concentrations near KM,ATP values, except where noted otherwise. Active human Src kinase was obtained from Millipore. For kinome profiling and IC50 determinations against non-Src kinases, compounds were submitted to Invitrogen's SelectScreen Kinase Profiling Service.
# LYN A = LYN A (Homo sapiens, UniProt P07948); conditions: 5 μM
# Protocol: as §1
# PRKACA (PKA) = PRKACA (PKA) (Homo sapiens, UniProt P17612); conditions: 5 μM
# Protocol: as §1
# YES1 = YES1 (Homo sapiens, UniProt P07947); conditions: 5 μM
# Protocol: as §1
# ERBB4 (HER4) = ERBB4 (HER4) (Homo sapiens, UniProt Q15303); conditions: 5 μM
# Chain of ERBB4 (HER4) (Q15303 26-1308): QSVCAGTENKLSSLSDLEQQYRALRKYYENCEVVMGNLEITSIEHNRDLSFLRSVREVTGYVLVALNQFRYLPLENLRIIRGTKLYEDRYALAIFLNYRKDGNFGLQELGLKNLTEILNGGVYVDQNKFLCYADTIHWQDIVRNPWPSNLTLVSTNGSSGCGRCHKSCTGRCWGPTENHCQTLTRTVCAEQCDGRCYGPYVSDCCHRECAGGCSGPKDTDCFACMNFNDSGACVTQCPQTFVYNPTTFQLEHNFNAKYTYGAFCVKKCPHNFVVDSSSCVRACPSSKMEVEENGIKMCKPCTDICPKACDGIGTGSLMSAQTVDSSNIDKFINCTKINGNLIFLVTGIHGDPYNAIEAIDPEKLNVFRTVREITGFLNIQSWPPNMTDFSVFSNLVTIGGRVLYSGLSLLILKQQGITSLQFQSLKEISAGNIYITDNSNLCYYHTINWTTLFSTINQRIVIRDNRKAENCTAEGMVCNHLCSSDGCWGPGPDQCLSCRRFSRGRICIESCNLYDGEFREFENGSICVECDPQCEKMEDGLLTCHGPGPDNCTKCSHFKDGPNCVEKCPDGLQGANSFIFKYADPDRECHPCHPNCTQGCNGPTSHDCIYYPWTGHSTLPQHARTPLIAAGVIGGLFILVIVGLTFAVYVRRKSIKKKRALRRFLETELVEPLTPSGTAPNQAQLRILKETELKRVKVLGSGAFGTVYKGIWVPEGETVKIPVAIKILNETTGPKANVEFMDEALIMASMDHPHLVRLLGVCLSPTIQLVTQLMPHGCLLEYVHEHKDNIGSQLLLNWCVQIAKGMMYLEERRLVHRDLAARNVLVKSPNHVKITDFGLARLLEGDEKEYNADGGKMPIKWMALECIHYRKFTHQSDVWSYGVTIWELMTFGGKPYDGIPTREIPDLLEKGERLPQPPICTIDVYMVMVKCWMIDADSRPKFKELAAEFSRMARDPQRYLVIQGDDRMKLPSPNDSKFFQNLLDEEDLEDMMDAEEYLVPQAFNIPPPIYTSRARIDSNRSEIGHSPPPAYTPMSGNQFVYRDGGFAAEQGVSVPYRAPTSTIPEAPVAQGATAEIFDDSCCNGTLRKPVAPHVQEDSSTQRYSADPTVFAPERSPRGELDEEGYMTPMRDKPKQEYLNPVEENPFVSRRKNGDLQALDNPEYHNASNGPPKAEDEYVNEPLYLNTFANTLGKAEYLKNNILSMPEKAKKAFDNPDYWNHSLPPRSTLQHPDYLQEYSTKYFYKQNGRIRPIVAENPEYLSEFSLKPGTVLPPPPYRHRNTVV
# Protocol: as §1
# JAK3 = JAK3 (Homo sapiens, UniProt P52333); conditions: 5 μM
# Protocol: as §1
# AMPK A1/B1/G1 = AMPK A1/B1/G1 (Homo sapiens, UniProt Q13131); conditions: 5 μM
# Protocol: as §1
# MAP2K1 (MEK1) = MAP2K1 (MEK1) (Homo sapiens, UniProt Q02750); conditions: 5 μM
# Protocol: as §1
# [1] = molecular target: MAPK14 (p38 alpha) Direct (Homo sapiens, UniProt Q16539); conditions: 5 μM
# Protocol: as §1
# FYN = FYN (Homo sapiens, UniProt P06241); conditions: FYN; 5 μM
# Chain of FYN (P06241 whole entry): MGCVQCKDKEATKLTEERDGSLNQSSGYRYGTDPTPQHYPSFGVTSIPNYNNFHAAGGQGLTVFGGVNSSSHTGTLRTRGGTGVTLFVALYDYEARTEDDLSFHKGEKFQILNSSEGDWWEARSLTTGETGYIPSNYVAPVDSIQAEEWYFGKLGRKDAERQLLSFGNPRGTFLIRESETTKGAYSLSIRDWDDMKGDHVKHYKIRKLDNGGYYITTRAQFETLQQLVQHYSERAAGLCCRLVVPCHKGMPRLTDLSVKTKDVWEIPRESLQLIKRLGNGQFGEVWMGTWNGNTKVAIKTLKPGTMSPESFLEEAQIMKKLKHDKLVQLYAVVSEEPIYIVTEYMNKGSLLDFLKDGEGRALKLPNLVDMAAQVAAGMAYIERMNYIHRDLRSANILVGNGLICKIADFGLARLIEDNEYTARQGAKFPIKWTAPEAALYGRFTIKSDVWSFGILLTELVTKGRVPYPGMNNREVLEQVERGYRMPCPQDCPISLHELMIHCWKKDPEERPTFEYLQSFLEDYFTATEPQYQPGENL
# Protocol: as §1
# IGF1R = IGF1R (Homo sapiens, UniProt P08069); conditions: 5 μM
# Protocol: as §1
# RPS6KA3 (RSK2) = RPS6KA3 (RSK2) (Homo sapiens, UniProt P51812); conditions: 5 μM
# Protocol: as §1
# PAK4 = PAK4 (Homo sapiens, UniProt O96013); conditions: 5 μM
# Protocol: as §1
# LYN B = LYN B (Homo sapiens, UniProt P07948); conditions: 5 μM
# Protocol: as §1
# LCK = LCK (Homo sapiens, UniProt P06239); conditions: 5 μM
# Chain of LCK (P06239 whole entry): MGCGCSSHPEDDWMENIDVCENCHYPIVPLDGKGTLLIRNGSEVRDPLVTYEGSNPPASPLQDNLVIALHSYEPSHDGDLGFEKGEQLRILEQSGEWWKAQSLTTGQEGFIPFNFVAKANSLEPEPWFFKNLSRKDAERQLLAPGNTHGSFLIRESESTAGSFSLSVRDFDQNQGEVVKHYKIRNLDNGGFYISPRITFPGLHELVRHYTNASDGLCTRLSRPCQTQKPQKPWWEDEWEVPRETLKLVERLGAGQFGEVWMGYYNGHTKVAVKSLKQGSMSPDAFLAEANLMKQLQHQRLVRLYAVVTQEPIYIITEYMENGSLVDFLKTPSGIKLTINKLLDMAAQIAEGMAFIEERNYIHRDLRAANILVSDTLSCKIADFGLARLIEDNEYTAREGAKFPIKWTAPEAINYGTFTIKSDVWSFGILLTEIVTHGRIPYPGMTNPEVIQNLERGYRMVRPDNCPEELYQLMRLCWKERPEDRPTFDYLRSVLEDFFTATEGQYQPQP
# Protocol: as §1
# AURKA (Aurora A) = molecular target: T1, AURKA (Aurora A) (Homo sapiens, UniProt O14965); conditions: AURKA (Aurora A); 5 μM
# T1 sequence (O14965 1-403): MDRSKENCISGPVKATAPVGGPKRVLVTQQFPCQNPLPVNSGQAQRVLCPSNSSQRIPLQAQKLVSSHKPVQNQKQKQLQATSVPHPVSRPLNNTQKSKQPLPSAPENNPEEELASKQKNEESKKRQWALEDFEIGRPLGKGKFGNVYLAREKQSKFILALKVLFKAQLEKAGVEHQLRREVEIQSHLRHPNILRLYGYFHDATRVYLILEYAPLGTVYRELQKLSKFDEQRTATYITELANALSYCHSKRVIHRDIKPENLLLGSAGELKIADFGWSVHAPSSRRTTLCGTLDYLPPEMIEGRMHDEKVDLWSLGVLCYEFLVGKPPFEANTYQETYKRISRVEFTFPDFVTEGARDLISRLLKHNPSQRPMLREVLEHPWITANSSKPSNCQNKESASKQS
# Protocol: as §1
# CHEK1 (CHK1) = CHEK1 (CHK1) (Homo sapiens, UniProt O14757); conditions: 5 μM
# Protocol: as §1
# MAP4K4 (HGK) = MAP4K4 (HGK) (Homo sapiens, UniProt O95819); conditions: 5 μM
# Chain of MAP4K4 (HGK) (O95819 whole entry): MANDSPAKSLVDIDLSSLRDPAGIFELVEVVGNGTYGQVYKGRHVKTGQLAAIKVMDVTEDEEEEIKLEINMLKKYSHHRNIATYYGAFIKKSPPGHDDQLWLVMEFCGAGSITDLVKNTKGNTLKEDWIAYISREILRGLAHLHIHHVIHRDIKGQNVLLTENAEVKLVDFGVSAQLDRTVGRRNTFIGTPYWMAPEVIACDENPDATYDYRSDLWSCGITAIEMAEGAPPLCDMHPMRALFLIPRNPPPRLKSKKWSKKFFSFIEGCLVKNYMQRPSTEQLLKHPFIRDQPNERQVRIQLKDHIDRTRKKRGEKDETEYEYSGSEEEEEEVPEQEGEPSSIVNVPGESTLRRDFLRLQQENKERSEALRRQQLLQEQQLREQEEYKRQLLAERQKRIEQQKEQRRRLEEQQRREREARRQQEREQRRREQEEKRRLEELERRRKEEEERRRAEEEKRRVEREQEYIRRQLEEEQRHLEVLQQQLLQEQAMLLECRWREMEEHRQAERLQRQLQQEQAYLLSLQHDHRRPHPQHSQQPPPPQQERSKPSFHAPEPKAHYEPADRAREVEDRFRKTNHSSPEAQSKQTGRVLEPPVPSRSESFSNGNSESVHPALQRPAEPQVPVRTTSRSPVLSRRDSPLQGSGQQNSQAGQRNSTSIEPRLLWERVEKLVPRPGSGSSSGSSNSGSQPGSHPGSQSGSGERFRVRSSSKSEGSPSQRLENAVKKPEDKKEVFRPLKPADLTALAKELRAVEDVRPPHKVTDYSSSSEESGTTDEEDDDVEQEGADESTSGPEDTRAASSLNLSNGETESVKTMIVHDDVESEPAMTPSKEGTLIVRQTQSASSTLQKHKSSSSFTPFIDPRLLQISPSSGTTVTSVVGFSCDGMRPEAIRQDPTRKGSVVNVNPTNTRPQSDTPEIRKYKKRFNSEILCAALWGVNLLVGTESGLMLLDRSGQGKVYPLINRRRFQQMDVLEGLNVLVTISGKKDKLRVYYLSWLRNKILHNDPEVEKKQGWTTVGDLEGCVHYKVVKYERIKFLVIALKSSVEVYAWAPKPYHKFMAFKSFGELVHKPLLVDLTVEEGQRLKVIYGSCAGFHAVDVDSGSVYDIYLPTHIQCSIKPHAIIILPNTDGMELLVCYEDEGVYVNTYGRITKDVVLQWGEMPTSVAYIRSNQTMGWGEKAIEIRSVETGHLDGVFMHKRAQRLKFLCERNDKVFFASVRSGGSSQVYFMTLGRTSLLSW
# Protocol: as §1
# AKT1 (PKB alpha) = AKT1 (PKB alpha) (Homo sapiens, UniProt P31749); conditions: 5 μM
# Protocol: as §1
# SYK = SYK (Homo sapiens, UniProt P43405); conditions: 5 μM
# Protocol: as §1
# AURKB (Aurora B) = AURKB (Aurora B) (Homo sapiens, UniProt Q96GD4); conditions: AURKB (Aurora B); 5 μM
# Chain of AURKB (Aurora B) (Q96GD4 whole entry): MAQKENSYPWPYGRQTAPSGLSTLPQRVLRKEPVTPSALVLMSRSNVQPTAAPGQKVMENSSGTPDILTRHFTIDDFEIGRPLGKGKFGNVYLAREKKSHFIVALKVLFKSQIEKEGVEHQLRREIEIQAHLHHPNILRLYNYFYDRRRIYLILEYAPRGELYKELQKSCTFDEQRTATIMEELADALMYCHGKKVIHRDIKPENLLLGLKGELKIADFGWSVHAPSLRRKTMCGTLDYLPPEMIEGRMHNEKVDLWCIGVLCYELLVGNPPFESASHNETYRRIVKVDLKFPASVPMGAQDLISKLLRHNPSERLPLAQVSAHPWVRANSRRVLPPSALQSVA
# Protocol: as §1
# GSK3B (GSK3 beta) = GSK3B (GSK3 beta) (Homo sapiens, UniProt P49841); conditions: 5 μM
# Protocol: as §1
# MARK2 = MARK2 (Homo sapiens, UniProt Q7KZI7); conditions: 5 μM
# Chain of MARK2 (Q7KZI7 whole entry): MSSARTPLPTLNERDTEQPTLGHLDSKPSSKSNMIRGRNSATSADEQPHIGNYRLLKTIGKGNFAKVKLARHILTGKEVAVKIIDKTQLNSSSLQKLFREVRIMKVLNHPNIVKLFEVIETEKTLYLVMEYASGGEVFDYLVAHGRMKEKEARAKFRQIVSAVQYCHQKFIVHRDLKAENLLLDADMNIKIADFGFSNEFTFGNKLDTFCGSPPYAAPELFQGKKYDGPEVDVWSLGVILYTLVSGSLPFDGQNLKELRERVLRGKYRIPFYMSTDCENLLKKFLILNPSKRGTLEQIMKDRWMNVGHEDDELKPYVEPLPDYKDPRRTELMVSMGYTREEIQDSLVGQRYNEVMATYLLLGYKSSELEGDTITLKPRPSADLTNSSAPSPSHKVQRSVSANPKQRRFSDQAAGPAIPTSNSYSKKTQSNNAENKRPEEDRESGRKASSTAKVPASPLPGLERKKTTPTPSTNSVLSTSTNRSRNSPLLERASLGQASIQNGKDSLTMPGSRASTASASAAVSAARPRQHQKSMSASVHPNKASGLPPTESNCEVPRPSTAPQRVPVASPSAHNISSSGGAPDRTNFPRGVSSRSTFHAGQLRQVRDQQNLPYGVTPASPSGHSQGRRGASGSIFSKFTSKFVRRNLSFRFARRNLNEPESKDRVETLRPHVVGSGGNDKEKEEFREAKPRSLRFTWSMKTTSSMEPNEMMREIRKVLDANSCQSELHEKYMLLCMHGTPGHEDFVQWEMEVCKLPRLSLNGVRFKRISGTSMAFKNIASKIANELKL
# Protocol: as §1
# IKBKB (IKK beta) = IKBKB (IKK beta) (Homo sapiens, UniProt O14920); conditions: 5 μM
# Protocol: as §1
# HCK = HCK (Homo sapiens, UniProt P08631); conditions: HCK; 5 μM
# Protocol: as §1
# RET = RET (Homo sapiens, UniProt P07949); conditions: 5 μM
# Protocol: as §1
# FRK (PTK5) = FRK (PTK5) (Homo sapiens, UniProt P42685); conditions: 5 μM
# Protocol: as §1
# MAPK14 (p38 alpha) = MAPK14 (p38 alpha) (Homo sapiens, UniProt Q16539); conditions: 5 μM
# Protocol: as §1
# AURKC (Aurora C) = AURKC (Aurora C) (Homo sapiens, UniProt Q9UQB9); conditions: 5 μM
# Protocol: as §1
# FLT3 = FLT3 (Homo sapiens, UniProt P36888); conditions: 5 μM
# Protocol: as §1
# MET (cMet) = MET (cMet) (Homo sapiens, UniProt P08581); conditions: 5 μM
# Protocol: as §1
# DYRK3 = DYRK3 (Homo sapiens, UniProt O43781); conditions: 5 μM
# Protocol: as §1
# FGR = FGR (Homo sapiens, UniProt P09769); conditions: FGR; 5 μM
# Protocol: as §1
# MAPK1 (ERK2) = MAPK1 (ERK2) (Homo sapiens, UniProt P28482); conditions: 5 μM
# Chain of MAPK1 (ERK2) (P28482 whole entry): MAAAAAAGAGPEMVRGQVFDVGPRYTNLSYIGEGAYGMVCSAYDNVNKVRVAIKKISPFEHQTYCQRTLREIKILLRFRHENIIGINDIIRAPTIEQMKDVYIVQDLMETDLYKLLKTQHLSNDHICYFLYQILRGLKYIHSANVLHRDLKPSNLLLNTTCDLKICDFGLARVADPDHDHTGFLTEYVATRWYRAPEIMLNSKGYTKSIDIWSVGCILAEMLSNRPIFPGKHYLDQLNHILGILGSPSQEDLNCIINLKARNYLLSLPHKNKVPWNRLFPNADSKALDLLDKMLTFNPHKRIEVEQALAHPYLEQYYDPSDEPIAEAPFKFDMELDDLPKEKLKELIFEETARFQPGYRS
# Protocol: as §1
smiles,measurement,setting,value
NC(=O)[C@@H]1CCCNC(=O)[C@H](Cc2ccc([N+](=O)[O-])cc2)NC(=O)[C@H](Cc2ccco2)NC(=O)[C@H](CC2CC2)NC(=O)/C=C/C(=O)N1 [trans-A10-B1-C5-D6],% inhibition,BTK,4%
same,% inhibition,LYN A,9%
same,% inhibition,PRKACA (PKA),−1%
same,% inhibition,YES1,19%
same,% inhibition,ERBB4 (HER4),4%
same,% inhibition,JAK3,−7%
same,% inhibition,AMPK A1/B1/G1,−1%
same,% inhibition,MAP2K1 (MEK1),−6%
same,% inhibition,[1],−9%
same,% inhibition,FYN,−1%
same,% inhibition,IGF1R,9%
same,% inhibition,RPS6KA3 (RSK2),−4%
same,% inhibition,PAK4,−2%
same,% inhibition,LYN B,7%
same,% inhibition,LCK,17%
same,% inhibition,AURKA (Aurora A),10%
same,% inhibition,CHEK1 (CHK1),−15%
same,% inhibition,MAP4K4 (HGK),−1%
same,% inhibition,AKT1 (PKB alpha),−7%
same,% inhibition,SYK,−1%
same,% inhibition,AURKB (Aurora B),0%
same,% inhibition,GSK3B (GSK3 beta),−6%
same,% inhibition,MARK2,1%
same,% inhibition,IKBKB (IKK beta),−1%
same,% inhibition,HCK,9%
same,% inhibition,RET,6%
same,% inhibition,FRK (PTK5),15%
same,% inhibition,MAPK14 (p38 alpha),32%
same,% inhibition,AURKC (Aurora C),2%
same,% inhibition,FLT3,7%
same,% inhibition,MET (cMet),−8%
same,% inhibition,DYRK3,4%
same,% inhibition,FGR,13%
same,% inhibition,MAPK1 (ERK2),−3%
